Measured values: PubChem BioAssay AID256 (DTP/NCI, 2004)
Inconclusive results and toxic doses are left out. The calls were made as follows: active = survival T/C of 150% or more; inactive = T/C below 125% in these data. Residues, ends and D or L forms follow the SMILES beside them. *: point of attachment. Trt = c1ccc(C(c2ccccc2)(c2ccccc2)*)cc1; Cbz = O=C(OCc1ccccc1)*; Bn = c1ccc(C*)cc1; βAla = NCCC(=O)O

Tested on: CD2F1 mice, L1210 leukemia ip, survival T/C
Assay: NCI In Vivo Anticancer Drug Screen. Data for tumor model L1210 Leukemia (intraperitoneal) in CD2F1 (CDF1) mice
Settings: higher = longer survival
Summary of the method: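 Read-out first: treated-group measurement over vehicle-control measurement, expressed as a ratio. Animals bore a transplanted tumor line and were dosed with compound or vehicle.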

[1] = endpoint: mean survival time, dose: 100.0 mg/kg/injection, schedule: Q04DX002 (ip), vehicle: saline with Tween-80
[2] = endpoint: mean survival time, dose: 200.0 mg/kg/injection, schedule: Q04DX002 (ip), vehicle: saline with Tween-80
[3] = endpoint: mean survival time, dose: 400.0 mg/kg/injection, schedule: Q04DX002 (ip), vehicle: saline with Tween-80
[4] = endpoint: mean survival time, dose: 75.0 mg/kg/injection, schedule: Q01DX001 (ip), vehicle: saline
[5] = endpoint: mean survival time, dose: 150.0 mg/kg/injection, schedule: Q01DX001 (ip), vehicle: saline
[6] = endpoint: mean survival time, dose: 300.0 mg/kg/injection, schedule: Q01DX001 (ip), vehicle: saline
[7] = endpoint: mean survival time, dose: 100.0 mg/kg/injection, schedule: Q01DX001 (ip), vehicle: saline with Tween-80
[8] = endpoint: mean survival time, dose: 200.0 mg/kg/injection, schedule: Q01DX001 (ip), vehicle: saline with Tween-80
[9] = endpoint: mean survival time, dose: 100.0 mg/kg/injection, schedule: Q01DX009 (ip), vehicle: saline with Tween-80
[10] = endpoint: mean survival time, dose: 100.0 mg/kg/injection, schedule: Q04DX003 (ip), vehicle: saline with Tween-80
[11] = endpoint: mean survival time, dose: 200.0 mg/kg/injection, schedule: Q01DX009 (ip), vehicle: saline with Tween-80
[12] = endpoint: mean survival time, dose: 200.0 mg/kg/injection, schedule: Q04DX003 (ip), vehicle: saline with Tween-80
[13] = endpoint: mean survival time, dose: 400.0 mg/kg/injection, schedule: Q01DX009 (ip), vehicle: saline with Tween-80
[14] = endpoint: mean survival time, dose: 400.0 mg/kg/injection, schedule: Q04DX003 (ip), vehicle: saline with Tween-80
[15] = endpoint: mean survival time, dose: 50.0 mg/kg/injection, schedule: Q04DX002 (ip), vehicle: saline with Tween-80

Measured: T/C

CCOP(=O)(OCC)C(c1ccccc1)(c1ccccc1)c1ccccc1
inactive: endpoint: mean survival time, dose: 100.0 mg/kg/injection, schedule: Q01DX001 (ip), vehicle: Klucel (hydroxypropylcellulose) (HPC) 103 % of control | endpoint: mean survival time, dose: 200.0 mg/kg/injection, schedule: Q01DX001 (ip), vehicle: Klucel (hydroxypropylcellulose) (HPC) 96 % of control | endpoint: mean survival time, dose: 400.0 mg/kg/injection, schedule: Q01DX001 (ip), vehicle: Klucel (hydroxypropylcellulose) (HPC) 102 % of control

CCCCOP(=O)(OCCCC)Oc1cccc2ccccc12
inactive: [1] 91 % of control | [2] 95 % of control | [3] 106 % of control

c1ccc2c(-c3cnc(-c4ccc(-c5ncc(-c6cccc7ccccc67)o5)cc4)o3)cccc2c1
inactive: [4] 100 % of control | [5] 102 % of control | [6] 97 % of control

CCC(C)C(NC(=O)OCc1ccccc1)C(=O)ON1C(=O)CCC1=O (centres undefined)
inactive: endpoint: mean survival time, dose: 100.0 mg/kg/injection, schedule: Q04DX003 (ip), vehicle: saline sonified 95 % of control | endpoint: mean survival time, dose: 200.0 mg/kg/injection, schedule: Q04DX003 (ip), vehicle: saline sonified 90 % of control | endpoint: mean survival time, dose: 400.0 mg/kg/injection, schedule: Q04DX003 (ip), vehicle: saline sonified 100 % of control

Oc1ccccc1/C=N\N=C\c1ccccc1O
inactive: [7] 97 % of control | [8] 106 % of control | endpoint: mean survival time, dose: 400.0 mg/kg/injection, schedule: Q01DX001 (ip), vehicle: saline with Tween-80 100 % of control

CCc1ccccc1NC(=O)c1cccc(Cl)c1
inactive: [9] 98 % of control | [10] 94 % of control | [11] 91 % of control | [12] 96 % of control | [13] 96 % of control | [14] 96 % of control

Cc1c[n+]([O-])cc(=O)[nH]1
inactive: [9] 97 % of control | [10] 96 % of control | [11] 97 % of control | [12] 100 % of control | [13] 95 % of control | [14] 100 % of control

CCSSCCN
inactive: endpoint: mean survival time, dose: 100.0 mg/kg/injection, schedule: Q01DX009 (ip), vehicle: saline 94 % of control | endpoint: mean survival time, dose: 100.0 mg/kg/injection, schedule: Q04DX003 (ip), vehicle: saline 93 % of control | endpoint: mean survival time, dose: 200.0 mg/kg/injection, schedule: Q01DX009 (ip), vehicle: saline 93 % of control | endpoint: mean survival time, dose: 200.0 mg/kg/injection, schedule: Q04DX003 (ip), vehicle: saline 89 % of control | endpoint: mean survival time, dose: 400.0 mg/kg/injection, schedule: Q01DX009 (ip), vehicle: saline 102 % of control | endpoint: mean survival time, dose: 400.0 mg/kg/injection, schedule: Q04DX003 (ip), vehicle: saline 97 % of control

O=[N+]([O-])c1cc(Cl)ccc1NC(Nc1ccc(Cl)cc1[N+](=O)[O-])C(Cl)(Cl)Cl
inactive: [9] 101 % of control | [11] 106 % of control | [13] 101 % of control

COc1ccccc1NC(=O)Oc1ccc(SC)c(C)c1
inactive: [1] 100 % of control | [2] 95 % of control | [3] 95 % of control

CNC(=O)Nc1nc2ccc([N+](=O)[O-])cc2[nH]1
inactive: [10] 109 % of control | [12] 105 % of control | [14] 105 % of control

NCc1ccc(-n2cnc3c(=O)[nH]c(N)nc32)cc1
inactive: [15] 90 % of control | [1] 107 % of control | [2] 101 % of control

FC1(F)C2Cc3ccccc3C2C1(Cl)Cl (centres undefined)
inactive: [4] 103 % of control | [5] 101 % of control | [6] 100 % of control

Cc1ccc(NC(=O)NO)cc1
inactive: endpoint: mean survival time, dose: 4.0 mg/kg/injection, schedule: Q03HX024 (ip), vehicle: saline 95 % of control | endpoint: mean survival time, dose: 8.0 mg/kg/injection, schedule: Q03HX024 (ip), vehicle: saline 93 % of control | endpoint: mean survival time, dose: 16.0 mg/kg/injection, schedule: Q03HX024 (ip), vehicle: saline 101 % of control | endpoint: mean survival time, dose: 32.0 mg/kg/injection, schedule: Q03HX024 (ip), vehicle: saline 87 % of control | endpoint: mean survival time, dose: 62.0 mg/kg/injection, schedule: Q03HX024 (ip), vehicle: saline with Tween-80 97 % of control | endpoint: mean survival time, dose: 64.0 mg/kg/injection, schedule: Q03HX024 (ip), vehicle: saline 93 % of control | endpoint: mean survival time, dose: 93.0 mg/kg/injection, schedule: Q03HX024 (ip), vehicle: saline with Tween-80 99 % of control

COC(=O)C1CSCC1=O (centres undefined)
inactive: endpoint: mean survival time, dose: 50.0 mg/kg/injection, schedule: Q01DX001 (ip), vehicle: saline with Tween-80 97 % of control | [7] 97 % of control | [8] 103 % of control

CC(C)C(C=O)C(O)(C(F)(F)F)C(F)(F)Cl (centres undefined)
inactive: [10] 91 % of control

COC(=O)CC1(O)C=CC(=O)C=C1
inactive: endpoint: mean survival time, dose: 0.75 mg/kg/injection, schedule: Q01DX009 (ip), vehicle: Klucel (hydroxypropylcellulose) (HPC) 104 % of control | endpoint: mean survival time, dose: 1.5 mg/kg/injection, schedule: Q01DX009 (ip), vehicle: Klucel (hydroxypropylcellulose) (HPC) 98 % of control | endpoint: mean survival time, dose: 3.0 mg/kg/injection, schedule: Q01DX009 (ip), vehicle: Klucel (hydroxypropylcellulose) (HPC) 95 % of control | endpoint: mean survival time, dose: 6.0 mg/kg/injection, schedule: Q01DX009 (ip), vehicle: Klucel (hydroxypropylcellulose) (HPC) 92 % of control | endpoint: mean survival time, dose: 12.0 mg/kg/injection, schedule: Q01DX009 (ip), vehicle: Klucel (hydroxypropylcellulose) (HPC) 95 % of control

CC(=O)OC1CCC2(C)C(CCC3C2CCC2(C)C3CC3OC(CCC(C)CO)C(C)C32)C1 (centres undefined)
inactive: [9] 95 % of control | [11] 91 % of control | [13] 96 % of control

C1CCC2NN=NC2C1 (centres undefined)
inactive: [7] 104 % of control | [8] 98 % of control

CC1CCOC(c2ccccc2)O1 (centres undefined)
inactive: [15] 102 % of control | [1] 94 % of control | [2] 97 % of control

C=CCN(CC#N)CC#N
inactive: endpoint: mean survival time, dose: 2.5 mg/kg/injection, schedule: Q04DX003 (ip), vehicle: Klucel (hydroxypropylcellulose) (HPC) 106 % of control | endpoint: mean survival time, dose: 5.0 mg/kg/injection, schedule: Q04DX003 (ip), vehicle: Klucel (hydroxypropylcellulose) (HPC) 97 % of control | endpoint: mean survival time, dose: 10.0 mg/kg/injection, schedule: Q04DX003 (ip), vehicle: Klucel (hydroxypropylcellulose) (HPC) 105 % of control

CC(C)CC(NC(=O)CCl)C(=O)O (centres undefined)
inactive: [9] 101 % of control | [10] 97 % of control | [11] 96 % of control | [12] 98 % of control | [13] 101 % of control | [14] 96 % of control

CC12CCC3c4ccc(O)cc4CCC3C1CCC2S (centres undefined)
inactive: [10] 88 % of control | [12] 92 % of control

[Cl][Pt+2][Cl].[NH-]C1CCCC2CCC[N-]C12 (centres undefined)
inactive: [1] 105 % of control | [2] 121 % of control | [3] 110 % of control

COC(=O)C(CSC(c1ccccc1)(c1ccccc1)c1ccccc1)NC(=O)C(CSCc1ccccc1)NC(=O)CCNC(=O)OCc1ccccc1 (centres undefined) ({Cbz-βAla}-Cys(Bn)-Cys(Trt)-OMe; configuration not given here)
inactive: endpoint: median survival time, dose: 12.5 mg/kg/injection, schedule: Q01DX009 (ip), vehicle: Klucel (hydroxypropylcellulose) (HPC) 101 % of control | endpoint: median survival time, dose: 25.0 mg/kg/injection, schedule: Q01DX009 (ip), vehicle: Klucel (hydroxypropylcellulose) (HPC) 101 % of control | endpoint: median survival time, dose: 50.0 mg/kg/injection, schedule: Q01DX009 (ip), vehicle: Klucel (hydroxypropylcellulose) (HPC) 101 % of control | endpoint: median survival time, dose: 100.0 mg/kg/injection, schedule: Q01DX009 (ip), vehicle: Klucel (hydroxypropylcellulose) (HPC) 108 % of control | endpoint: median survival time, dose: 200.0 mg/kg/injection, schedule: Q01DX009 (ip), vehicle: Klucel (hydroxypropylcellulose) (HPC) 103 % of control

C=CC[n+]1ccccc1/C=C\c1ccc(N(C)C)cc1
inactive: [4] 118 % of control

CC1(C)C(=O)C2(I)CCC1C2 (centres undefined)
inactive: [10] 101 % of control | [12] 98 % of control | [14] 98 % of control

C=CCCCCCCCCC(=O)NCC(C)C
inactive: [9] 104 % of control | [10] 91 % of control | [11] 104 % of control | [12] 102 % of control | [13] 98 % of control | [14] 100 % of control

O=C(CBr)c1cccnc1
inactive: endpoint: mean survival time, dose: 6.25 mg/kg/injection, schedule: Q04DX003 (ip), vehicle: saline 95 % of control | endpoint: mean survival time, dose: 12.5 mg/kg/injection, schedule: Q04DX003 (ip), vehicle: saline 98 % of control | endpoint: mean survival time, dose: 25.0 mg/kg/injection, schedule: Q04DX003 (ip), vehicle: saline 101 % of control
